Source: patent US6403347B1, “HIV integrase inhibitors” (Merck & Co., Inc., priority 1999, dated 2002)
Like-named read-outs stand apart in the source and are kept apart here.

Assays:
HIV-1 integrase = HIV-1 integrase (Human immunodeficiency virus type 1 group M subtype B, UniProt P12497); assay: HIV integrase substrate cleavage (trimming of the 3′ end of HIV long terminal repeat terminus)
Description: HIV Integrase Substrate Cleavage
An assay for trimming of the 3′ and of HIV long terminal repeat terminus by HIV-1 integrase was conducted according to LaFemina, R. L. et al., J. Virol 10, 5624 (1991), herein incorporated by reference for these purposes. To assay inhibition of HIV integrase substrate cleavage, the reaction was conducted with inhibitor having various concentrations in the range of 0.75 to 100 μM.

HIV integrase = HIV integrase (Human immunodeficiency virus type 1 group M subtype B, UniProt P12497); assay: Strand transfer assay for HIV integrase (microtiter assay, ligation of processed donor DNA to nicked host DNA)
Description: Strand Transfer Assay for HIV Integrase
A microtiter assay for ligation of processed donor (HIV) DNA to unspecific, nicked host DNA was conducted according to Hazuda, D. J. et al., Nucl. […] To assay inhibition of such strand transfer by HIV integrase, the reaction was conducted with inhibition having various concentrations in the range of 0.75 to 100 μM.

Row | Compound | IC50 (HIV-1 integrase) [µM] | IC50 (HIV integrase) [µM] | IC50 (HIV-1 integrase; inhibition of HIV integrase substrate cleavage, inhibitor concentrations 0.75 to 100 μM) [µM] | IC50 (HIV integrase; inhibition of strand transfer by HIV integrase, concentrations 0.75 to 100 μM) [µM]
1 | CC1Oc2cc3c(-c4c(O)cc(O)c5c(O)c6c(cc45)OC(C)C(C)C6=O)c(O)cc(O)c3c(O)c2C(=O)C1C (single isomer, unassigned) [Compound A] | 2 | 12 | – | –
2 | CC1Oc2cc3c(-c4c(O)cc(O)c5c(O)c6c(cc45)OC(C)C(C)C6=O)c(O)cc(O)c3c(O)c2C(=O)C1C (single isomer, unassigned) [Compound B] | – | – | 2 | 12
3 | CC1Oc2cc3c(-c4c(O)cc(O)c5c(O)c6c(cc45)OC(C)C(C)C6=O)c(O)cc(O)c3c(O)c2OC(=O)C1C (centres unmarked) [Compound C] | 3 | 9 | – | –
4 | Cc1oc2cc3c(-c4c(O)cc(O)c5c(O)c6c(cc45)OC(C)C(C)C6=O)c(O)cc(O)c3c(O)c2c(=O)c1C (centres unmarked) [Compound D] | 1 | 4 | – | –
5 | COc1cc(O)c2c(OC)c3c(cc2c1-c1c(OC)cc(OC)c2c(OC)c4c(cc12)OC(C)C(C)C4=O)OC(C)C(C)C3=O (centres unmarked) [Compound F] | 40 | – | – | –
6 | COc1cc(OC)c2c(OC)c3c(cc2c1-c1c(OC)cc(OC)c2c(OC)c4c(cc12)OC(C)C(C)C4=O)OC(C)C(C)C3=O (centres unmarked) [Compound G] | 60 | – | – | –
7 | CC(=O)Oc1cc(OC(C)=O)c2c(OC(C)=O)c3c(cc2c1-c1c(OC(C)=O)cc(OC(C)=O)c2c(OC(C)=O)c4c(cc12)OC(C)C(C)C4=O)OC(C)C(C)C3=O (centres unmarked) [E] | 50 | – | – | –
